Assay [1] has as its target T1, chondroitin synthase (Caenorhabditis elegans, UniProt Q7Z1Z1).
T1 construct: wild-type (N2) animals were used to prepare worm protein extracts; from tissue; host or cells: whole C. elegans hermaphrodites (young adults), sonicated protein extract
T1 sequence (Q7Z1Z1 1-736): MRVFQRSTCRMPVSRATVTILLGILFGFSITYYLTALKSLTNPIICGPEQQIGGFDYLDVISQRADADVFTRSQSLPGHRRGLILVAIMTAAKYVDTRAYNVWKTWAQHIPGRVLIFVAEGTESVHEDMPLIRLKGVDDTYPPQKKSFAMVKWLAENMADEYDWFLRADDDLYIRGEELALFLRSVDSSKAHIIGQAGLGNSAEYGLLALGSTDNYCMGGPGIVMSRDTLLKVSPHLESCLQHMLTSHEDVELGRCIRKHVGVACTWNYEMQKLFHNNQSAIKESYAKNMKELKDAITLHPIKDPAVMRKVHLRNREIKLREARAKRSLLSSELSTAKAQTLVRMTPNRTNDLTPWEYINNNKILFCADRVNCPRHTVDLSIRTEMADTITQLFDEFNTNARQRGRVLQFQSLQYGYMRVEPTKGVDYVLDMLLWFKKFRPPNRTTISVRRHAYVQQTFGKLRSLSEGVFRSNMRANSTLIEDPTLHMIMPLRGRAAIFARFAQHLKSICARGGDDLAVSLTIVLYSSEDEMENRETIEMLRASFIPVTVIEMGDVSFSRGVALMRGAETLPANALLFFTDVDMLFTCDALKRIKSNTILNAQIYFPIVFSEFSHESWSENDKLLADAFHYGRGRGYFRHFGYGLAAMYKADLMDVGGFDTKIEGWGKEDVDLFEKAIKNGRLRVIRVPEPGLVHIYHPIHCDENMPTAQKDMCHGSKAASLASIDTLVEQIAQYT
Kind of assay: GalNAcT (N-acetylgalactosamyl transferase) assay of chondroitin synthase activity in worm protein extracts. The assay is classed as biochemical. The procedure: (§1) sqv-5(n3611), sqv-5(n3611)/hT2, and wild-type (N2) animals were used to prepare worm protein extracts. These extracts were tested for chondroitin synthase activity using standard methods, for example, in DeAngelis et al., (J. Biol. Chem. 27:24124-24129, 2000).
(§2) A desulfated chondroitin acceptor was used for the GalNAcT (N-acetylgalactosamyl transferase) assay. Desulfated and β-glucuronidase-treated chondroitin acceptor was used for the GlcAT (glucuronyl transferase) assay.
(§3) The enzymatic activity of SQV-5 was assayed as follows. SQV-5(n3611), sqv-5(n3611)/hT2, and wild-type N2 hermaphrodites were picked as L4 larvae by visual examination of the vulva using a dissecting microscope. The worms staged were allowed to grow for an additional twenty-three to twenty-seven hours at 22° C., re-examined, then transferred to 1.7-ml plastic tubes containing sterile water. The staged worms were washed once with water and twice with 50 mM Tris, pH 7.5, then frozen in a 50 μl volume using liquid nitrogen, and stored at −70° C.
(§4) Worm extracts were assayed for GIcAT glucoronosyltransferase activity by combining 1.3×10^5 cpm UDP-^3H-glucuronic acid donor (NEN), 6 μg β-glucuronidase-treated chondroitin acceptor, and 2.7 μg worm extract in a 25 μl reaction volume containing 0.05% Triton X-100, 10 mM MnCl2, and 100 μM ATP, pH 6.5. GalNAcT activity was detected by combining 1.3 to 3×10^5 cpm UDP-^3H-GalNAc donor (NEN), 12 μg chondroitin acceptor, and 6.7 μg worm extract in a 25 μl reaction volume containing 0.05% Triton X-100 and 10 mM MnCl2, pH 6.5. […] Pelleted material was resuspended in water and counted by liquid scintillation.
(§5) The chondroitin acceptor used was prepared as follows. […] Uronic acid concentration of both preparations was determined by the Carbazole method (Bitter, et al., Anal. Biochem. 4:330-334, 1962).

Assay [2] has as its system chondroitin synthase. Described as above. In kind it is biochemical. To be noted: extract genotype sqv-5/sqv-5 (sqv-5(n3611)). The protocol:
as §1, §2, §3, §4, §5

As to `CC(=O)N[C@H]1[C@@H](OP(=O)(O)OP(=O)(O)OC[C@H]2O[C@@H](n3ccc(=O)[nH]c3=O)[C@H](O)[C@@H]2O)O[C@H](CO)[C@H](O)[C@@H]1O` [UDP-N-acetylgalactosamine], the values for the CPM in assay [1] (extract genotype +/+ (wild-type)), in assay [1] (extract genotype +/sqv-5 (sqv-5(n3611)/hT2)) and in assay [2] were 171 CPM, 134 CPM and <0 CPM, respectively.

The record behind these values is patent US7442501B2, “SQV nucleic acids and polypeptides” (Massachusetts Institute of Technology, priority 2002, dated 2008).
